In patent US10016373B2, “CB2 receptor ligands for the treatment of psychiatric disorders” (priority 2013, dated 2018):
Where two headings read alike, the source gives them in different places.

Assays:
osteoclastogenesis = conditions: Schuehly et al. 2011; cited from earlier work
mice [1] = assay: Impulsivity, Elevated Plus Maze; type: in vivo; conditions: CB2 agonist2 model mice at 13 weeks, M1 5 mg/kg i.p. 24 hours before the test
Description: The treatment consisted of a single intravenous administration of the vehicle or the M1 solution Impulsivity was tested 24 hours after treatment.
Impulsivity as measured by the paucity of time spent on the two anxiety-provoking, open arms (as opposed to the two enclosed arms) of an “Elevated Plus Maze” was used as a parameter of negative symptoms of schizophrenia (Josselyn and Vaccarino, 1998). The plus maze was elevated 50 cm above the table top. Behavior of each mouse was recorded for 5 minutes by a video camera and scored using the “EthoVision” software (Noldus), measuring the number of entries as well as the amount of time spent in each arm, open or closed. Reduced time spent in the closed arms indicated reduced anxiety. Increased time spent in the opened arms indicated increased risk behavior (hyperactive and impulsive).
The treatment consisted of a single i.p. administration of the vehicle or the M1 solution. The duration ratio open arm/close arm and the frequency ratio open arm/close arm in the Elevated Plus Maze were evaluated 24 hours after treatment with either vehicle or M1.

mice [2] = assay: Vocal tics, ultrasonic voice recording; type: in vivo
Description: Mice were recorded at the age of 13 or 23-25 weeks with an ultrasonic voice recorder (Noldus). Mice were recorded at the age of 29 days with an ultrasonic voice recorder (AviSoft). Single mice were recorded in a cage for 10 min (according to sex and type of treatment). The number and duration of events at 20-40 kHz and at 50-70 kHz were analyzed. In some experiments, 24 h following M1 treatment, each mouse was recorded for 10 min before and after stress. Stress was induced by incubation for 10-15 min in a mouse restrainer.

Body weight = type: in vivo; conditions: postnatal day 100; mice treated with 0.5 mg/kg CB2 agonist2; FIG. 16C
mice [3] = type: in vivo
Description: For the treated mice, one of the two CB2 receptor-selective agonist solutions: either CB2 agonist2 solution or H-308 solution, was administered by intravenous administration to mice pups to induce ADHD-like behavior and/or obsessive-compulsive-like behavior as a murine model for ADHD and OCD. […] In order to test the effect of non-agonist or mixed-type agonist/inverse agonist CB2 receptor ligands on hyperactivity, the effects of M1 were studied.
Open-Field Test (Crossing and Rearing, Defecation, Grooming)
Mice were assessed for hyperactive behavior on postnatal days 16-20, 26-39, at age 13 weeks and at age 23 weeks. Mice were placed in the center of a transparent glass cage 30×40×31 cm divided into squares of 7.5×7.5 cm. The number of squares crossed and the rearing activity were evaluated for 8 min.

mice [4] = assay: Prepulse inhibition (PPI) of the startle reflex; type: in vivo
Description: Attention Test: Prepulse Inhibition (PPI) of the Startle Reflex
A weak audible stimulus (74-90 dB tone) “prepulse” was used to inhibit the acoustic startle response to a subsequent strong audible stimulus (120 dB tone) “pulse”. Reduced prepulse inhibition of the startle reflex (PPI) was taken as an index of the positive symptoms of deficits in attention.
PPI was assessed similarly to the method described by Varty et al. (2001). Mice were placed in a startle chamber and allowed to acclimatize for 5 minutes A loudspeaker produced startling “pulse” at 120 dB and thereafter 65 dB background white noise or one of […] 20 ms duration “prepulses” at 74, 78, 82, 86, and 90 dB followed after 20 ms by a 40 ms startling “pulse” at 120 dB. The response of each mouse was recorded and stored by a computer. Each test session lasted for 11 minutes and consisted of 5 presentations of each of the prepulse/pulse sound stimuli (total of 30 or 35) presented in random order and separated by 15 second intervals. The magnitude of prepulse inhibition was calculated as percentage PPI=[1-(acoustic startle for prepulse+pulse)/(acoustic startle for pulse alone)]×100.

[5] = test system: mouse model of Alzheimer's disease; conditions: orally administered, Lee et al. 2012; cited from earlier work
CB2 receptor [6] = biological target: T1, CB2 receptor (Homo sapiens, UniProt P34972); conditions: cited from earlier work
T1 construct: expressed in transfected cells; host or cells: CHO cells

presenilin 2 mutant mice = conditions: cited from earlier work
CB2 receptor [7] = biological target: T1, CB2 receptor; conditions: cited from earlier work; remark: listed apart in the source
[8] = CB2 receptor, Schuehly et al. 2011

T1 sequence (P34972 whole entry): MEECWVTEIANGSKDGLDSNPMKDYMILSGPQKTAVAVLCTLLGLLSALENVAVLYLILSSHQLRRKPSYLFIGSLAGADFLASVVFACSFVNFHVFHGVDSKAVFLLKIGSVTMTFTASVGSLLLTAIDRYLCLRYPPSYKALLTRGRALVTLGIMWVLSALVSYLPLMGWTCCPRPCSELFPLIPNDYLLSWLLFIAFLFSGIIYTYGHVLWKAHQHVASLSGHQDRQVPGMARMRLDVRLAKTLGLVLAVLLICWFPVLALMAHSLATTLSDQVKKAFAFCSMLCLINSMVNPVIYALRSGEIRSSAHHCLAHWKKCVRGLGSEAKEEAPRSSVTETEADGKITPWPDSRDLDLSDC

C=CCc1ccc(O)c(-c2ccc(OC)c(CC=C)c2)c1 [M1, 2-(4-Methoxy-3-prop-2-enylphenyl)-4-prop-2-enylphenol]
inverse agonism: activity via cAMP pathway (CB2 receptor [6]; [8])
orally available: oral availability (mice [3]; inferred from efficacy of M1 5 mg/kg given in gavage)
attenuates: memory impairment (presenilin 2 mutant mice)
partial agonism: activity via Ca2+ pathway (CB2 receptor [7]; [8])
no effect: body weight (Body weight) | response to the startle tone of 120 dB (mice [4]; postnatal day 100, 0.5 mg/kg CB2 agonist2 mice, at the beginning of the experiment, FIG. 16A)
reversed: impulsive/hyperactive behavior (mice [1]) | number of vocal events (mice [2]; 20-40 KHz, day 29, female mice, CB2 agonist2 0.5 mg/kg at the age of 3-15 days, M1 5 mg/kg on day 29, FIG. 14A) | duration of vocals (mice [2]; 20-40 KHz, day 29, female mice, CB2 agonist2 0.5 mg/kg at the age of 3-15 days, M1 5 mg/kg on day 29, FIG. 14B) | number of vocal events (mice [2]; female mice 23-25 weeks, 20-40 KHz, stress, CB2 agonist2 5 mg/kg postnatal days 5-13, M1 given to model mice, FIG. 7A) | total duration of vocal events (mice [2]; female mice 23-25 weeks, 20-40 KHz, stress, CB2 agonist2 5 mg/kg postnatal days 5-13, M1 given to model mice, FIG. 7B) | mean duration of vocal events (mice [2]; female mice 23-25 weeks, 20-40 KHz, stress, CB2 agonist2 5 mg/kg postnatal days 5-13, M1 given to model mice, FIG. 7C) | number of vocal events (mice [2]; female mice 23-25 weeks, 50-70 KHz, stress, CB2 agonist2 5 mg/kg postnatal days 5-13, M1 given to model mice, FIG. 8A) | total duration of vocal events (mice [2]; female mice 23-25 weeks, 50-70 KHz, stress, CB2 agonist2 5 mg/kg postnatal days 5-13, M1 given to model mice, FIG. 8B) | mean duration of vocal events (mice [2]; female mice 23-25 weeks, 50-70 KHz, stress, CB2 agonist2 5 mg/kg postnatal days 5-13, M1 given to model mice, FIG. 8C) | total duration of vocal events (mice [2]; male mice 23-25 weeks, 20-40 KHz, before stress, CB2 agonist2 5 mg/kg postnatal days 5-13, M1 given to model mice, FIG. 9A) | mean duration of vocal events (mice [2]; male mice 23-25 weeks, 20-40 KHz, before stress, CB2 agonist2 5 mg/kg postnatal days 5-13, M1 given to model mice, FIG. 9B) | total duration of vocal events (mice [2]; male mice 23-25 weeks, 50-70 KHz, before stress, CB2 agonist2 5 mg/kg postnatal days 5-13, M1 given to model mice, FIG. 10A) | mean duration of vocal events (mice [2]; male mice 23-25 weeks, 50-70 KHz, before stress, CB2 agonist2 5 mg/kg postnatal days 5-13, M1 given to model mice, FIG. 10B) | grooming (mice [3]; CB2 agonist2 0.5 mg/kg at the age of 3-15 days, M1 5 mg/kg on day 29, measured on day 39, stressed female mice, FIG. 13A) | feces secretion (mice [3]; CB2 agonist2 0.5 mg/kg at the age of 3-15 days, M1 5 mg/kg on day 29, measured on day 39, stressed female mice, FIG. 13B) | rearing (mice [3]; CB2 agonist2 0.5 mg/kg at the age of 3-15 days, M1 on day 29, measured on day 36, unstressed female mice, FIG. 12A) | ambulation (mice [3]; CB2 agonist2 0.5 mg/kg at the age of 3-15 days, M1 on day 29, measured on day 39, stressed female mice, FIG. 12B) | ambulation (mice [3]; CB2 agonist2 0.5 mg/kg model, M1 injected on day 29, measured the same day, stressed females, FIG. 11B) | rearing (mice [3]; CB2 agonist2 0.5 mg/kg model, M1 injected on day 29, measured the same day, stressed females, FIG. 11D) | hyperactivity (mice [3]; age of 3 months, 0.1 mg/kg HU-308, M1 5 mg/kg in gavage 30 minutes before the experiment, FIGS. 17A-B) | ambulation (mice [3]; model mice 5 mg/kg CB2 agonist2 postnatal days 1-5, M1 5 mg/kg single i.p. at 13 weeks, 30 minutes after treatment, FIG. 5A) | rearing (mice [3]; model mice 5 mg/kg CB2 agonist2 postnatal days 1-5, M1 5 mg/kg single i.p. at 13 weeks, 30 minutes after treatment, FIG. 5B) | secretion of feces (mice [3]; model mice 5 mg/kg CB2 agonist2 postnatal days 5-13, M1 5 mg/kg single i.p. at 23 weeks, FIG. 4C) | grooming duration (mice [3]; model mice 5 mg/kg CB2 agonist2 postnatal days 5-13, M1 5 mg/kg single i.p. at 23 weeks, tested 48 hours after treatment, FIG. 4A) | grooming frequency (mice [3]; model mice 5 mg/kg CB2 agonist2 postnatal days 5-13, M1 5 mg/kg single i.p. at 23 weeks, tested 48 hours after treatment, FIG. 4B) | response to pre-pulse tone (mice [4]; mice treated with 0.5 mg/kg CB2 agonist2, FIG. 15B) | response to 120 dB (mice [4]; postnatal day 100, 0.5 mg/kg CB2 agonist2 mice, re-evaluated at the end of the experiment, FIG. 16B) | % PPI (pre-pulse inhibition) (mice [4]; postnatal day 100, mice treated with 0.5 mg/kg CB2 agonist2, FIG. 15A)
increasing: cAMP production (CB2 receptor [6]; known dual effects of M1) | intracellular Ca2+ concentration (CB2 receptor [7]; known dual effects of M1)
prevent: amyloidogenesis and progression of AD [5]
potently inhibits: osteoclastogenesis (osteoclastogenesis)
